Measurements reported in publication PMC7994622, “Eryptosis and Malaria: New Experimental Guidelines and Re-Evaluation of the Antimalarial Potential of Eryptosis Inducers” (Frontiers in Cellular and Infection Microbiology, 2021).
“Also recorded” adds a separate entry of the source. Counter-ions that a name gives are not always drawn. Like-named read-outs stand apart in the source and are kept apart here.

How the values were obtained:
[1] = tested on: P. falciparum-infected erythrocytes; assay: Eryptosis assay by flow cytometry on P. falciparum-infected erythrocytes; assay type: cell-based, human; settings: 4 h in iRPMI, 4% hematocrit, 1, 5, 10 μM (ionomycin 1 μM), PS exposure, cell size, intracellular calcium, hemolysis, significant changes
Protocol: (§1) Use of human erythrocytes was approved by the La Trobe University Research Ethics Committee (ethics number HEC17‐013) and an Australian Red Cross Blood Service Agreement (Deed 19-05VIC-01). Red blood cell populations are intrinsically heterogeneous and variable between donors, therefore each experiment presented in this study was conducted a minimum of three independent times, each with a different batch of blood. Human red cells were processed as soon as possible upon collection to minimize erythrocyte aging. Naïve (non-infected) erythrocytes and Plasmodium falciparum 3D7-infected erythrocytes were cultured at 37°C, in low oxygen conditions (1% O2, 5% CO2, 94% N2), at 4% or 0.4% hematocrit, in incomplete RPMI media (iRPMI: RPMI 1640 HEPES, 50 mg/L hypoxanthine, 10 mg/L gentamicin, pH 6.74), complete RPMI media (cRPMI: incomplete RPMI supplemented with 2.25 g/L sodium bicarbonate and 5 g/L AlbuMAX II), or Ringer solution (1mM CaCl2, 5mM glucose, 32 mM HEPES pH 7.4, 5 mM KCl, 1mM MgSO4, 125mM NaCl). P. falciparum standard in vitro culture conditions were conducted as previously described ([Trager and Jensen, 1976]).
(§2) Drug assays measuring eryptosis were carried out in 100 μl or 500 μl of culture when using 4% or 0.4% hematocrit conditions, respectively. DMSO, the vehicle, was used for the no-drug conditions. Cells were incubated at 37°C, in low oxygen conditions for 1 h to 48 h depending on the assay. Each experiment was performed in triplicate unless otherwise indicated and cells were analyzed by flow cytometry. […] Cells were washed in staining buffer (5 mM CaCl2, 5 mM glucose, 32 mM HEPES pH7.4, 5 mM KCl, 1 mM MgSO4, 125 mM NaCl), resuspended in 0.3 μM of intracellular calcium dye x-Rhod-1 AM (Invitrogen) and incubated in the dark at 37°C for 30 min. Subsequently, cells were washed in staining buffer and incubated with Annexin V-PE (1:20 dilution in staining buffer; BD Bioscience) at 37°C for 20 min in the dark for the staining of surface-exposed phosphatidylserine. Cells were resuspended in 200 μl staining buffer and analyzed within the hour using a CytoFLEX S flow cytometer (Beckman Coulter). 100,000 total events were recorded for each condition at a flow rate of 10 μl/min. Data were analyzed using FlowJo V10. For PS exposure measure, gating was set using data obtained with naïve erythrocytes DMSO control. Infected cells were gated using Hoechst fluorescence. The percentage of Annexin V-PE positive cells, the mean forward scatter height (FSC-H) and mean x-Rhod-1 fluorescence area (PE-A) were acquired for naïve and infected-erythrocytes.

P. falciparum [2] = settings: cited from earlier work
P. berghei = settings: cited from earlier work
erythrocytes = settings: cited from earlier work
naïve erythrocytes [3] = assay: Eryptosis assay by flow cytometry (PS exposure, cell size, intracellular calcium) on naïve erythrocytes; assay type: cell-based, human; settings: for Eryptosis hallmarks, naïve erythrocytes: 4 h in iRPMI, 1, 5, 10 μM (ionomycin 1 μM), PS exposure, cell size, intracellular calcium, hemolysis, significant changes
Protocol: as §1, §2

P. falciparum [4] = assay: Parasite growth inhibition assay (SYBR Gold, 72 h); assay type: cell-based, Plasmodium falciparum 3D7
Protocol: as §1
Compound-induced parasite growth inhibition was measured as previously described ([Morahan et al., 2020]). Briefly, an asynchronous parasite culture at 0.25% parasitemia and 2% hematocrit was incubated in a 96-well plate with a two-fold serial dilution of compound over 72 h in standard culture conditions (cRPMI, 37°C, low oxygen). Compounds (at 10 mM in DMSO) were added to the first well of the dilution series to produce a 50 µM drug concentration (and 0.5% (v/v) DMSO) and diluted two-fold until a concentration of 0.19 nM compound was reached. Each condition was conducted in triplicates, subject to a freeze/thaw cycle and incubated with the DNA intercalant SYBR Gold following manufacturer instructions (SYBR™ Gold Nucleic Acid Stain, Invitrogen). The average fluorescence between triplicates was measured at 495 nm using a CLARIOstar® microplate reader and analyzed as a proxy of parasite replication.

naïve erythrocytes [5] = assay: Hemolysis assay (absorbance 405 nm) on naïve erythrocytes; assay type: cell-based, human; settings: 48 h
Text: Absorbance of culture media alone was considered as baseline.

[6] = asynchronous culture, cRPMI, up to 50 µM, N=5, read-out: P. falciparum IC50
[7] = Plasmodium falciparum, asynchronous culture, cRPMI, up to 50 µM, N=5, read-out: P. falciparum IC50
[8] = 1 μM, 1 h, iRPMI, 4% hematocrit

CCCCc1oc2ccccc2c1C(=O)c1cc(I)c(OCCN(CC)CC)c(I)c1 [Amiodarone, amiodarone HCl]
Eryptosis hallmarks, P. falciparum-infected erythrocytes [1]: Ns | Effect on P. falciparum: parasitemia (P. falciparum [2]; Pf in vitro, ref Bobbala et al., 2010b): Reduced parasitemia | Effect on P. berghei: parasitemia (P. berghei; Pb in vivo, ref Bobbala et al., 2010b): Reduced parasitemia | Effect on P. berghei: mice survival (P. berghei; Pb, ref Bobbala et al., 2010b): increased mice survival | Published eryptosis induction concentration (erythrocytes; naïve erythrocytes, ref Nicolay et al., 2007): 5 µM, ([Nicolay et al., 2007]) | Published eryptosis induction concentration (erythrocytes; naïve erythrocytes, ref Nicolay et al., 2007, listed as amiodarone): 5 µM | Eryptosis hallmarks, naïve erythrocytes (naïve erythrocytes [3]; 4% hematocrit): ↑ Calcium (5 μM)

O=c1cc(-c2ccc(O)cc2)oc2cc(O)cc(O)c12 [Apigenin, apigenin]
Eryptosis hallmarks, P. falciparum-infected erythrocytes [1]: Ns | IC50 (P. falciparum [2]; in vitro, ref Fallatah and Georges, 2017, read-out: P. falciparum IC50, previously published): 36 µM | Effect on P. berghei: parasitemia (P. berghei; Pb, ref Amiri et al., 2018): Decreased parasitemia (Pb) ([Amiri et al., 2018]) | IC50 (P. falciparum [4]; [6]): 65.8 µM | Published eryptosis induction concentration (erythrocytes; naïve erythrocytes, ref Zbidah et al., 2012): 15 µM, ([Zbidah et al., 2012]) | Published eryptosis induction concentration (erythrocytes; naïve erythrocytes, ref Zbidah et al., 2012, listed as apigenin): 15 µM | Eryptosis hallmarks, naïve erythrocytes (naïve erythrocytes [3]; 4% hematocrit): Ns

CNC(=O)c1cc(Oc2ccc(NC(=O)Nc3ccc(Cl)c(C(F)(F)F)c3)cc2)ccn1 [BAY 43-9006, Sorafenib]
Eryptosis hallmarks, P. falciparum-infected erythrocytes [1]: Ns | IC50 (P. falciparum [4]; [7]): < 10 µM | IC50 (P. falciparum [4]; [6]): 7.48 µM | percentage of PS-exposing cells (naïve erythrocytes [3]; 10 µM, 48 h, Ringer solution, 0.4% hematocrit): 41% | percentage of PS-exposing cells (naïve erythrocytes [3]; 10 µM, 48 h, Ringer solution, 4% hematocrit): 10% | PS exposure (naïve erythrocytes [3]; 10 µM, 48 h, cRPMI, 4% hematocrit): no significant increase | Eryptosis hallmarks, naïve erythrocytes (naïve erythrocytes [3]; 4% hematocrit): Ns | hemolysis (naïve erythrocytes [5]; 10 µM, Ringer, 0.4% hematocrit): significantly induced hemolysis | hemolysis (naïve erythrocytes [5]; 10 µM, Ringer, 4% hematocrit): not | hemolysis (naïve erythrocytes [5]; 10 µM, cRPMI, 4% hematocrit): not

CC(C)(C)CC(C)(C)c1ccc(OCCOCC[N+](C)(C)Cc2ccccc2)cc1 [Benzethonium, benzethonium chloride]
Eryptosis hallmarks, P. falciparum-infected erythrocytes [1]: Ns * | Eryptosis hallmarks, naïve erythrocytes (naïve erythrocytes [3]; 4% hematocrit): Ns

Nc1ncnc2c1ncn2[C@@H]1O[C@H](CO)C[C@H]1O [Cordycepin, cordycepin]
Eryptosis hallmarks, P. falciparum-infected erythrocytes [1]: Ns | IC50 (P. falciparum [4]; [7]): 12 µM | IC50 (P. falciparum [4]; asynchronous culture, cRPMI, up to 50 µM, N=5, listed as cordycepin, read-out: P. falciparum IC50): > 10 µM | IC50 (P. falciparum [4]; [6]): 12.1 µM | Published eryptosis induction concentration (erythrocytes; mouse erythrocytes, ref Lui et al., 2007): 31 µM, ([Lui et al., 2007]) | Published eryptosis induction concentration (erythrocytes; mouse erythrocytes, ref Lui et al., 2007, listed as cordycepin): 31 µM | Eryptosis hallmarks, naïve erythrocytes (naïve erythrocytes [3]; 4% hematocrit): Ns

C[C@H](CCC(=O)O)C[C@H](C)C[C@H](C)C(=O)/C=C(\O)[C@H](C)C[C@H](C)C/C=C/[C@@H](C)[C@@H](O)[C@@H](C)[C@@H](O)C[C@@H]1CC[C@@](C)([C@H]2CC[C@@](C)([C@@H](C)O)O2)O1 [Ionomycin, ionomycin]
Eryptosis hallmarks, P. falciparum-infected erythrocytes [1]: ↑ PS exposure ↓ Cell Size (1 μM) | Eryptosis hallmarks, P. falciparum-infected erythrocytes ([1]; listed as ionomycin): significant increase of PS exposure and a decrease in cell size | increase in PS exposure compared to the no-drug condition (naïve erythrocytes [3]; 1 μM, 1 h, Ringer solution, 4% hematocrit): 62 fold | PS exposure (naïve erythrocytes [3]; 1 μM, 1 h, Ringer, 4% hematocrit): 6.6% | PS exposure (naïve erythrocytes [3]; [8]): 4.4% | increase in PS exposure compared to the no-drug condition (naïve erythrocytes [3]; [8]): 45 fold | PS exposure (naïve erythrocytes [3]; 1 μM, 24 h, Ringer+Albumax, 4% hematocrit): 13.2% | PS exposure (naïve erythrocytes [3]; 1 μM, 48 h, Ringer+Albumax, 4% hematocrit): 22% | PS exposure (naïve erythrocytes [3]; 1 μM, 48 h, Ringer, 4% hematocrit): 24% | PS exposure (naïve erythrocytes [3]; 1 μM, 48 h, iRPMI+Albumax, 4% hematocrit): 15% | PS exposure (naïve erythrocytes [3]; 1 μM, 48 h, iRPMI+Albumax, 4% hematocrit, listed as ionomycin): 14.6% | PS exposure (naïve erythrocytes [3]; 1 μM, 48 h, iRPMI, 4% hematocrit): 23% | Eryptosis hallmarks, naïve erythrocytes (naïve erythrocytes [3]; 4% hematocrit): ↑ PS exposure ↓ Cell Size (1 μM) | Eryptosis hallmarks, naïve erythrocytes (naïve erythrocytes [3]; 4% hematocrit, listed as ionomycin): significant increase of PS exposure and a decrease in cell size | hemolysis (naïve erythrocytes [5]; 1 μM, Ringer or iRPMI with addition of Albumax, 4% hematocrit): abolish ionomycin-induced hemolysis | hemolysis (OD405) (naïve erythrocytes [5]; 1 μM, Ringer, 4% hematocrit): 20.5 | hemolysis (OD405) (naïve erythrocytes [5]; 1 μM, iRPMI, 4% hematocrit): 5.5

C=C1C(=O)[C@]23[C@H](O)[C@H]1CC[C@H]2[C@@]12CO[C@]3(O)[C@@H](O)[C@@H]1C(C)(C)CC[C@@H]2O [Oridonin, oridonin]
Eryptosis hallmarks, P. falciparum-infected erythrocytes [1]: Ns | Eryptosis hallmarks, P. falciparum-infected erythrocytes ([1]; listed as oridonin): did not induce statistically significant changes; also recorded: no significant increase | IC50 (P. falciparum [4]; [7]): ~2 µM | IC50 (P. falciparum [4]; [6]): ≤ 2 µM | Published eryptosis induction concentration (erythrocytes; naïve erythrocytes, ref Jilani et al., 2011): 25 µM, ([Jilani et al., 2011]) | Published eryptosis induction concentration (erythrocytes; naïve erythrocytes, ref Jilani et al., 2011, listed as oridonin): 25 µM | Eryptosis hallmarks, naïve erythrocytes (naïve erythrocytes [3]; 4% hematocrit): Ns | Eryptosis hallmarks, naïve erythrocytes (naïve erythrocytes [3]; 4% hematocrit, listed as oridonin): did not induce statistically significant changes; also recorded: no significant increase

C[C@@H]1CC[C@H]2[C@@H](C)C(=O)O[C@@H]3O[C@@]4(C)CC[C@@H]1[C@]32OO4 [artemisinin]
IC50 (P. falciparum [4]; Plasmodium falciparum, asynchronous culture, cRPMI, read-out: P. falciparum IC50): 0.012 µM

CCN(CC)CCCC(C)Nc1ccnc2cc(Cl)ccc12 (stereo not drawn) [chloroquine]
IC50 (P. falciparum [4]; Plasmodium falciparum, read-out: P. falciparum IC50, asynchronous culture, cRPMI, 72 h): 0.022 µM
